Assay results from PMC8545135, “Discovery of Bacterial Fimbria–Glycan Interactions Using Whole-Cell Recombinant Escherichia coli Expression” (mBio, 2021).

Assays:
[1] = target: T1, K88 (E. coli); F4ac (K88ac) fimbriae, MS428(pK88-AC) (Escherichia coli, UniProt P14190); assay: whole-cell SPR, Biacore T200, C1 chip, single-cycle kinetics; assay type: cell-based; conditions: fimbriae on immobilized whole cells; MS428 reference cell
T1 construct: gene faeG; native F4ac fimbriae on whole cells of fim-negative E. coli MS428, plasmid pK88-AC with F4ac gene cluster
T1 sequence (P14190 22-283 limits assumed): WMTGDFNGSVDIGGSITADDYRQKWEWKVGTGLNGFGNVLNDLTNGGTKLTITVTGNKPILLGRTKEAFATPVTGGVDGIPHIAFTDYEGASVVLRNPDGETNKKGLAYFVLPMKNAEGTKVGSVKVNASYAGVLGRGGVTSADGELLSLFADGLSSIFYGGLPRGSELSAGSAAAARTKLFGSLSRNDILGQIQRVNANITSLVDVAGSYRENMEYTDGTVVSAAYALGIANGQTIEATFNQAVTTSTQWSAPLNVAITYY
Source text: whole-cell SPR, Biacore T200, C1 chip, single-cycle kinetics on K88 (E. coli); F4ac (K88ac) fimbriae, MS428(pK88-AC)

[2] = target: T2, FimH^LD (purified FimH lectin-binding domain) (Escherichia coli, UniProt P08191); assay: SPR, CM5 chip, immobilized protein; conditions: glycans 1.6 nM to 1 μM
T2 construct: purified as previously described
T2 sequence (P08191 22-179): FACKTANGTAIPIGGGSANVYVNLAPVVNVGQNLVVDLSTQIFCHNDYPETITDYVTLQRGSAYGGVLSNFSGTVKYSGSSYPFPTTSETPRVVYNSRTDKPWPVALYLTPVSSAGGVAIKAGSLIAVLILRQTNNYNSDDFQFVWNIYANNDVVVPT
Source text: SPR, CM5 chip, immobilized protein on FimH^LD (purified FimH lectin-binding domain)

[3] = target: T3, FimH (E. coli); type 1 fimbriae, MS428(pPKL4) (Escherichia coli, UniProt P08191); assay: whole-cell SPR, Biacore T200, C1 chip, single-cycle kinetics; assay type: cell-based; conditions: fimbriae on immobilized whole cells; MS428 reference cell
T3 construct: with Type-1 fimbrial protein, A chain; Protein FimF; Protein FimG
T3 sequence (P08191 22-300): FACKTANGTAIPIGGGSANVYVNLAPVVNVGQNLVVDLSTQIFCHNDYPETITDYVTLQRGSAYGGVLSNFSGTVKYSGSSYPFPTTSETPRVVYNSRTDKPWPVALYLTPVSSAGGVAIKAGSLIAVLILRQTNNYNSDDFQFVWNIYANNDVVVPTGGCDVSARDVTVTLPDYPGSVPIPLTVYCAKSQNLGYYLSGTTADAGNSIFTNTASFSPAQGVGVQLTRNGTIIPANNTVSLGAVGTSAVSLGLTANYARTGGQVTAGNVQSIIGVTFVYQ
T3 sequence (P04128 24-182, further chain): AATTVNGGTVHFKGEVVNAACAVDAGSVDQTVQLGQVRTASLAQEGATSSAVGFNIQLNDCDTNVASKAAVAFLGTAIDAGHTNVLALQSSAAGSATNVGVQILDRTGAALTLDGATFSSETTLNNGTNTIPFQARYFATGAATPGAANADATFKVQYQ
Source text: whole-cell SPR, Biacore T200, C1 chip, single-cycle kinetics on FimH (E. coli); type 1 fimbriae, MS428(pPKL4)

## CC(=O)N[C@H]1[C@H](O[C@@H]2[C@H](O)[C@@H](O)[C@H](O[C@H]3[C@H](O)[C@@H](O)C(O)O[C@@H]3CO)O[C@@H]2CO)O[C@H](CO)[C@H](O)[C@@H]1O[C@@H]1O[C@H](CO)[C@H](O)[C@H](O)[C@H]1O (stereo partly drawn) [1F, AsialoGM1]
[1]
  Disassociation constant^a: / K88 (E. coli): 11.02 ± 3.9 µM

## OC[C@H]1O[C@H](O[C@H]2[C@@H](O)[C@@H](CO)OC(O)[C@@H]2O)[C@H](O)[C@@H](O)[C@H]1O (stereo partly drawn) [Galα1-3Gal]
[1]
  Disassociation constant^a: / K88 (E. coli): 0.1603 ± 0.03 µM

## OCC1OC(OCC2OC(OCC3OC(O)C(O)C(OC4OC(CO)C(O)C(O)C4O)C3O)C(O)C(OC3OC(CO)C(O)C(O)C3O)C2O)C(O)C(O)C1O (stereo not drawn) [Man5]
[2]
  Disassociation constant^a: / FimH (protein): 607 ± 142 nM
[3]
  Disassociation constant^a: / FimH (E. coli): 2.0 ± 0.842 µM

## Man5NAc
[2]
  Disassociation constant^a: / FimH (protein): 25.9 ± 8.9 nM
[3]
  Disassociation constant^a: / FimH (E. coli): 0.0274 ± 0.0168 µM
